Measurements: patent US20240368173A1, “TRICYCLIC GPR65 MODULATORS” (PATHIOS THERAPEUTICS LIMITED, priority 2021, published 2024)

Target: human recombinant GPR65 (Homo sapiens, UniProt Q8IYL9)
Experiment: Human GPR65 cAMP HTRF antagonist assay
Format: cell-based
Settings: not given
In short: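 Antagonism measured as suppression of the cAMP rise when pH is dropped to 7.2 (control wells pH 7.9) in 1321N1 cells stably carrying human GPR65. Cells in KRH with 1 mM IBMX and 200 μM EDTA saw compound 30 min, then acid stimulation 30 min; HTRF cAMP detection, normalised, 4-parameter logistic IC50.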

human recombinant GPR65, sequence (Q8IYL9 whole entry): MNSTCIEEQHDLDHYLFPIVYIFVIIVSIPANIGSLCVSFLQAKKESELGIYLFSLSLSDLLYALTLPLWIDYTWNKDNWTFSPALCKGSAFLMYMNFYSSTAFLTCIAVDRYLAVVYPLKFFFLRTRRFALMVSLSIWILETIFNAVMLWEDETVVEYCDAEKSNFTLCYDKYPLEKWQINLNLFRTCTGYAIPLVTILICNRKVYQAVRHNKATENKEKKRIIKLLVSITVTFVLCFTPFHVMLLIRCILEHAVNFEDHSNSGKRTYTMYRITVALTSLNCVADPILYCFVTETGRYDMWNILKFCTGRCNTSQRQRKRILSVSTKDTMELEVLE

Row | Compound | IC50 [nM]
1 | O=C(Nc1cc(Cl)c(-c2ccc3nonc3c2)cc1F)N1[C@H]2CC[C@@H]1c1ccnc(F)c1C2 [Compound 162, (5R,8S)-N-(4-(Benzo[c][1,2,5]oxadiazol-5-yl)-5-chloro-2-fluorophenyl)-1-fluoro-6,7,8,9-tetrahydro-5H-5,8-epiminocyclohepta[c]pyridine-10-carboxamide] | < 500
2 | COC(=O)c1cncc(-c2cc(F)c(NC(=O)N3[C@H]4CC[C@@H]3c3n[nH]c(=O)cc3C4)cc2Cl)c1 [Compound 188, Methyl 5-(2-chloro-5-fluoro-4-((6S,9R)-3-oxo-3,5,6,7,8,9-hexahydro-2H-6,9-epiminocyclohepta[c]pyridazine-10-carboxamido)phenyl)nicotinate] | < 500
3 | Cc1nn(C)c(C)c1-c1cc(F)c(NC(=O)N2[C@H]3CC[C@@H]2c2n[nH]c(=O)cc2C3)cc1Cl [Compound 150, (6S,9R)-N-(5-Chloro-2-fluoro-4-(1,3,5-trimethyl-1H-pyrazol-4-yl)phenyl)-3-oxo-3,5,6,7,8,9-hexahydro-2H-6,9-epiminocyclohepta[c]pyridazine-10-carboxamide] | 500 to 5000
4 | O=C(Nc1cc(Cl)c(-c2cnn(-c3ccncc3)c2)cc1F)N1[C@H]2CC[C@@H]1c1n[nH]c(=O)cc1C2 [Compound 145, (6S,9R)-N-(5-Chloro-2-fluoro-4-(1-(pyridin-4-yl)-1H-pyrazol-4-yl)phenyl)-3-oxo-3,5,6,7,8,9-hexahydro-2H-6,9-epiminocyclohepta[c]pyridazine-10-carboxamide] | < 500
5 | O=C(Nc1cc(Br)c(Cl)cc1F)N1C2CCC1c1n[nH]c(=O)cc1C2 (racemic) [Compound 7, (±)-N-(5-Bromo-4-chloro-2-fluorophenyl)-3-oxo-3,5,6,7,8,9-hexahydro-2H-6,9-epiminocyclohepta[c]pyridazine-10-carboxamide] | < 500
6 | O=C(Nc1ccccc1)c1cc(F)c(NC(=O)N2[C@H]3CC[C@@H]2c2n[nH]c(=O)cc2C3)cc1Cl [Compound 231, (6S,9R)—N-(5-Chloro-2-fluoro-4-(phenylcarbamoyl)phenyl)-3-oxo-3,5,6,7,8,9-hexahydro-2H-6,9-epiminocyclohepta[c]pyridazine-10-carboxamide] | 500 to 5000
7 | COc1ccc(-c2cc(F)c(NC(=O)N3[C@H]4CC[C@@H]3c3c[nH]c(=O)cc3C4)cc2F)cn1 [Compound 246, (6S,9R)-N-(2,5-Difluoro-4-(6-methoxypyridin-3-yl)phenyl)-3-oxo-3,5,6,7,8,9-hexahydro-2H-6,9-epiminocyclohepta[c]pyridine-10-carboxamide] | < 500
8 | O=C(Nc1cc(Cl)c(-c2cnc3nonc3c2)cc1F)N1[C@H]2CC[C@@H]1c1ccnc(F)c1C2 [Compound 190, (5R,8S)-N-(4-([1,2,5]Oxadiazolo[3,4-b]pyridin-6-yl)-5-chloro-2-fluorophenyl)-1-fluoro-6,7,8,9-tetrahydro-5H-5,8-epiminocyclohepta[c]pyridine-10-carboxamide] | < 500
9 | COc1ccc(-c2cc(F)c(NC(=O)N3[C@H]4CC[C@@H]3c3n[nH]c(=O)cc3C4)cc2Cl)nc1 [Compound 211, (6S,9R)-N-(5-Chloro-2-fluoro-4-(5-methoxypyridin-2-yl)phenyl)-3-oxo-3,5,6,7,8,9-hexahydro-2H-6,9-epiminocyclohepta[c]pyridazine-10-carboxamide] | < 500
10 | CN1C(=O)COc2ccc(-c3cc(F)c(NC(=O)N4[C@H]5CC[C@@H]4c4n[nH]c(=O)cc4C5)cc3Cl)cc21 [Compound 147, (6S,9R)-N-(5-Chloro-2-fluoro-4-(4-methyl-3-oxo-3,4-dihydro-2H-benzo[b][1,4]oxazin-6-yl)phenyl)-3-oxo-3,5,6,7,8,9-hexahydro-2H-6,9-epiminocyclohepta[c]pyridazine-10-carboxamide] | < 500
11 | O=C(Nc1cc(Cl)c(-c2ccccc2)cc1F)N1[C@H]2CC[C@@H]1c1c[nH]c(=O)cc1C2 [Compound 251, (6S,9R)-N-(2-Chloro-5-fluoro-[1,1′-biphenyl]-4-yl)-3-oxo-3,5,6,7,8,9-hexahydro-2H-6,9-epiminocyclohepta[c]pyridine-10-carboxamide] | < 500
12 | O=C(Nc1cc(Cl)c(-c2cncc(F)c2)cc1F)N1[C@H]2CC[C@@H]1c1n[nH]c(=O)cc1C2 [Compound 126, (6S,9R)-N-(5-Chloro-2-fluoro-4-(5-fluoropyridin-3-yl)phenyl)-3-oxo-3,5,6,7,8,9-hexahydro-2H-6,9-epiminocyclohepta[c]pyridazine-10-carboxamide] | < 500
13 | COc1cnccc1-c1cc(F)c(NC(=O)N2[C@H]3CC[C@@H]2c2c[nH]c(=O)cc2C3)cc1Cl [Compound 298, (6S,9R)-N-(5-Chloro-2-fluoro-4-(3-methoxypyridin-4-yl)phenyl)-3-oxo-3,5,6,7,8,9-hexahydro-2H-6,9-epiminocyclohepta[c]pyridine-10-carboxamide] | 500 to 5000
14 | Cc1ccc(-c2cc(F)c(NC(=O)N3[C@H]4CC[C@@H]3c3n[nH]c(=O)cc3C4)cc2Cl)cn1 [Compound 123, (6S,9R)-N-(5-Chloro-2-fluoro-4-(6-methylpyridin-3-yl)phenyl)-3-oxo-3,5,6,7,8,9-hexahydro-2H-6,9-epiminocyclohepta[c]pyridazine-10-carboxamide] | < 500
15 | O=C(Nc1cc(-c2cncc(F)c2)c(C(F)(F)F)cc1F)N1[C@H]2CC[C@@H]1c1c[nH]c(=O)cc1C2 [Compound 255, (6S,9R)-N-(2-Fluoro-5-(5-fluoropyridin-3-yl)-4-(trifluoromethyl)phenyl)-3-oxo-3,5,6,7,8,9-hexahydro-2H-6,9-epiminocyclohepta[c]pyridine-10-carboxamide] | < 500
16 | O=C(Nc1cc(Cl)c(Cl)cc1F)N1C2CCC1c1n[nH]c(=O)cc1C2 (racemic) [Compound 2, (±)-N-(4,5-Dichloro-2-fluorophenyl)-3-oxo-3,5,6,7,8,9-hexahydro-2H-6,9-epiminocyclohepta[c]pyridazine-10-carboxamide] | < 500
17 | O=C(Nc1cc(Cl)c(I)cc1F)N1[C@H]2CC[C@@H]1c1c[nH]c(=O)cc1C2 [Compound 79, (6S,9R)-N-(5-Chloro-2-fluoro-4-iodophenyl)-3-oxo-3,5,6,7,8,9-hexahydro-2H-6,9-epiminocyclohepta[c]pyridine-10-carboxamide] | < 500
18 | O=C(Nc1cc(Cl)c(-c2ccc3nonc3c2)cc1F)N1[C@H]2CC[C@@H]1C(F)(F)c1c2ccnc1F [Compound 329, (5S,8R)-N-(4-(Benzo[c][1,2,5]-oxadiazol-5-yl)-5-chloro-2-fluorophenyl)-1,9,9-trifluoro-6,7,8,9-tetrahydro-5H-5,8-epiminocyclohepta[c]pyridine-10-carboxamide] | 500 to 5000
19 | CO[C@H]1C[C@@H](Oc2ccc(NC(=O)N3[C@H]4CC[C@@H]3c3ccnc(F)c3C4)cc2Cl)C1 [Compound 72, (5R,8S)-N-(3-Chloro-4-((1s,3S)-3-methoxycyclobutoxy)phenyl)-1-fluoro-6,7,8,9-tetrahydro-5H-5,8-epiminocyclohepta[c]pyridine-10-carboxamide] | 500 to 5000
20 | CC(C)(O)c1ccc(NC(=O)N2[C@H]3CC[C@@H]2c2ccnc(F)c2C3)cc1Cl [Compound 60, (5R,8S)—N-(3-Chloro-4-(2-hydroxypropan-2-yl)phenyl)-1-fluoro-6,7,8,9-tetrahydro-5H-5,8-epiminocyclohepta[c]pyridine-10-carboxamide] | < 500
21 | COc1cnc(F)c2c1[C@H]1CC[C@@H](C2)N1C(=O)Nc1cc(Cl)c(Cl)cc1F [Compound 96, (5R,8S)-N-(4,5-Dichloro-2-fluorophenyl)-1-fluoro-4-methoxy-6,7,8,9-tetrahydro-5H-5,8-epiminocyclohepta[c]pyridine-10-carboxamide] | < 500
22 | O=C(Nc1cc(Cl)c(-c2ccc(OC(F)F)nc2)cc1F)N1[C@H]2CC[C@@H]1c1c[nH]c(=O)cc1C2 [Compound 325, (6S,9R)-N-(5-Chloro-4-(6-(difluoromethoxy)pyridin-3-yl)-2-fluorophenyl)-3-oxo-3,5,6,7,8,9-hexahydro-2H-6,9-epiminocyclohepta[c]pyridine-10-carboxamide] | < 500
23 | N#Cc1cncc(-c2cc(F)c(NC(=O)N3[C@H]4CC[C@@H]3c3n[nH]c(=O)cc3C4)cc2Cl)c1 [Compound 127, (6S,9R)-N-(5-Chloro-4-(5-cyanopyridin-3-yl)-2-fluorophenyl)-3-oxo-3,5,6,7,8,9-hexahydro-2H-6,9-epiminocyclohepta[c]pyridazine-10-carboxamide] | < 500

Same assay, conditions: 1321N1-hrGPR65 cells, cAMP HTRF, assay pH 7.2; read-out: hGPR65 IC50 (Activity of selected compounds according to the invention)

Row | Compound | IC50 [nM]
24 | O=C(Nc1cc(Cl)c(-c2cnccn2)cc1F)N1[C@H]2CC[C@@H]1c1n[nH]c(=O)cc1C2 [Compound 271, (6S,9R)-N-(5-Chloro-2-fluoro-4-(pyrazin-2-yl)phenyl)-3-oxo-3,5,6,7,8,9-hexahydro-2H-6,9-epiminocyclohepta[c]pyridazine-10-carboxamide] | 500 to 5000
25 | O=C(Nc1ccc(N2CC3CCC(C2)O3)cc1)N1[C@H]2CC[C@@H]1c1ccnc(F)c1C2 [Compound 62, (5R,8S)-N-(4-(8-Oxa-3-azabicyclo[3.2.1]octan-3-yl)phenyl)-1-fluoro-6,7,8,9-tetrahydro-5H-5,8-epiminocyclohepta[c]pyridine-10-carboxamide] | > 5000
26 | COc1cnccc1-c1cc(F)c(NC(=O)N2[C@H]3CC[C@@H]2c2n[nH]c(=O)cc2C3)cc1Cl [Compound 299, (6S,9R)-N-(5-Chloro-2-fluoro-4-(3-methoxypyridin-4-yl)phenyl)-3-oxo-3,5,6,7,8,9-hexahydro-2H-6,9-epiminocyclohepta[c]pyridazine-10-carboxamide] | 500 to 5000
27 | O=C(Nc1ccc(C2CCOCC2)cc1)N1[C@H]2CC[C@@H]1c1ccnc(F)c1C2 [Compound 57, (5R,8S)-1-Fluoro-N-(4-(tetrahydro-2H-pyran-4-yl)phenyl)-6,7,8,9-tetrahydro-5H-5,8-epiminocyclohepta[c]pyridine-10-carboxamide] | 500 to 5000
